The record followed here is patent US10254285B2, “Methods for detecting and treating cancer metastasis” (Cedars-Sinai Medical Center, priority 2013, dated 2019).

The subject of one assay is HUVEC. In words: Tube formation assay in endothelial cells. In kind it is cell-based. The settings on record: HUVECs treated with LO (20 μg/ml) in presence of Dyn. How it is done: (§1) LO and Exo isolation was performed by differential high-speed centrifugation (10,000×g and 100,000×g) followed by discontinuous density gradient centrifugation. Conditioned media from LNCaPMyrAkt1 was used as source for LO and Exo. Tube formation assay in endothelial cells, HUVEC treated with LO or Exo 20 μg/ml directly or with conditioned media from NAF previously exposed to either LO or Exo. After 6 h-8 h tube formation rate is recorded by imaging, and quantified by counting the branching points in randomly chosen fields from each condition.
as §1, with “Exo. Luciferase reporter assay for c-Myc promoter activation was performed in NAF transfected with c-Myc promoter or vector plasmid treated with either LO or Exo 20 μg/ml for 6 h in presence or absence of Dynasore 20 nM.” for “Exo.”, “directly in presence” for “directly”, “absence of Dynasore 20 nM.” for “with conditioned media from NAF previously exposed to either LO or Exo.”, “After for” for “After”

The subject of the next assay is c-Myc. In words: Luciferase reporter assay for c-Myc promoter activation in NAF. In kind it is cell-based. The settings on record: NAF exposed to LO (20 μg/ml) in presence of Dyn (20 μM). The protocol: LO and Exo isolation was performed by differential high-speed centrifugation (10,000×g and 100,000×g) followed discontinuous density gradient centrifugation. Conditioned media from LNCaPMyrAkt1 was used as source for LO and Exo. Nuclear extract from WPMY-1 cells treated with LO for the indicated time was used to perform the transcription factor activation profiling array from Signosis. Luciferase reporter assay for c-Myc promoter activation has been performed in NAF transfected with c-Myc promoter or vector plasmid treated with either LO or Exo 20 μg/ml for 6 h. RT-qPCR for c-Myc target cells in NAF treated with either LO or Exo 20 μg/ml for 6 h or 24 h.
LO and Exo isolation was performed by differential high-speed centrifugation (10,000×g and 100,000×g) followed by discontinuous density gradient centrifugation. Conditioned media from LNCaPMyrAkt1 was used as source for LO and Exo. […] After for 6 h-8 h tube formation rate is recorded by imaging, and quantified by counting the branching points in randomly chosen fields from each condition.

The test system of another assay is WPMY-1 cells. The assay is described as follows: Uptake of PKH26-labeled large oncosomes (LO) by recipient cells, FACS / fluorescent imaging. In kind it is cell-based, human. The following applies: WPMY-1 cells treated with PKH26-labeled LO for 1 h at 37° C. in presence of the compound. The protocol:
As shown in FIG. 23 LO internalization differs between cells. LO isolation was performed using a filtration approach where the larger vesicles are retained by the filter and the smaller ones flow through. To test LO uptake, LO were labeled with a lipophilic dye, PKH26 and then used to treat target cells for 1 h at 37° C. LO uptake levels have been measured as the acquisition of fluorescence by target cells either by FACS or confocal imaging.
LO isolation was preformed using a filtration approach where the larger vesicles are retained by the filter and the smaller ones flow through. To test LO uptake LO were labeled with a lipophilic dye, PKH26 and then used to treat target cells for 1 h at 37° C. or 4° C. in presence or absence of the indicated compounds. LO uptake levels were measured as the acquisition of fluorescence by target cells either by FACS and fluorescent imaging. Dynamin2 silencing has been performed by transient transfection of WPMY-1 cells with an oligos against Dynamin2.

Turning to `O=C(N/N=C/c1ccc(O)c(O)c1)c1cc2ccccc2cc1O` [dynasore], the tube formation entry in the assay with HUVEC is on record as “significantly inhibited”. The “c-Myc activation induced by LO (luciferase reporter)” value in the assay on c-Myc is listed as “reverted”. For the same compound, the “LO uptake (internalization, mean fluorescent intensity)” value is “significantly reduced” with WPMY-1 cells and “inhibited” in the assay with WPMY-1 cells (listed as Dyn).
As for `C=C1[C@@H](C)[C@H]2[C@H](Cc3ccccc3)NC(=O)[C@]23[C@H](OC(C)=O)/C=C/[C@@](C)(O)C(=O)[C@@H](C)C/C=C/[C@H]3[C@@H]1O` [cytochalasin D], in the assay on WPMY-1 cells, the “LO uptake (internalization, mean fluorescent intensity)” value is “partially reduced”.
